Data: US6781015B2, “Aminobenzophenones and photopolymerizable compositions including the same” (Albemarle Corporation, priority 1997, dated 2004)
Values joined by “and” are separate entries in the source; they are usually repeats but may differ in a detail not shown here. Equal values may be shown once.

System: Salmonella typhimurium tester strain TA98
Assay: Salmonella/Mammalian-Microsome Reverse Mutation Screening Assay (Ames Test)
Format: cell-based
Parameters: key to Background lawn: 1 = normal; 2 = slightly reduced; 3 = moderately reduced; 4 = extremely reduced; 5 = absent; 6 = obscured by precipitate; sp = slight precipitate; mp = moderate precipitate (requires hand count); hp = heavy precipitate (requires hand count)
Conditions: for Ames Test outcome (mutagenicity): tester strain TA98 in the presence of S9 mix
Procedure: Mutagenicity can be measured by a variety of assays. The most commonly used method is the Salmonella/Mammalian-Microsome Reverse Mutation Screening Assay (Ames Test), which commonly uses four or five strains of Salmonella bacteria to detect different types of mutations.
TMMK, TEMK and MEAB were evaluated for the ability to induce reverse mutations at the histidine locus in the genome of a specific Salmonella typhimurium tester strain in the presence of an exogenous metabolic activation system of mammalian microsomal enzymes derived from Aroclor™-induced rat liver (S9). The tester strain used in the mutagenicity assay was Salmonella typhimurium tester strain TA98 with added activation. The assay was conducted using eight doses of the test article, along with the appropriate vehicle and positive controls in the presence of S9 mix (S9 homogenate was purchased from Molecular Toxicology, Inc., Annapolis, Md. 21401, Batch 0646, 43.4 mg of protein per ml). Positive controls were also plated in the absence of S9 mix. All doses of test article, vehicle, and positive controls were plated in triplicate.
The test article TMMK was stored at room temperature. Acetone (CAS# 67-64-1, Fisher Scientific Co., Lot 961140) was used as the vehicle. At 20 mg per ml, which was the most concentrated stock solution which could be prepared, the test article formed a clear, light yellow solution. The test article remained a solution in all succeeding dilutions prepared for the mutagenicity assay. The maximum aliquot of acetone which can be used in the test system is 200 μl. Thus, the maximum concentration which could be tested was 4,000 μg per plate. The test article and vehicle controls were plated using a 200 μl plating aliquot. Positive control articles were plated using 50 μl plating aliquot.
(§1) The test article TEMK was stored at room temperature. Acetone (CAS# 67-64-1, Fisher Scientific Co., Lot 961140) was used as the vehicle. At 100 mg per ml, which was the most concentrated stock solution prepared, the test article formed a clear, yellow solution. The test article remained a solution in all succeeding dilutions prepared for the mutagenicity assay. The test article, vehicle controls and positive control articles were plated using a 50 μl plating aliquot.
as §1, with “MEAB” for “TEMK”, “(CAS#67-64-1,” for “(CAS# 67-64-1,”, “25” for “100”, “clear, light” for “clear,”, “article and” for “article,”, “were plated using a 200 μl plating aliquot. Positive” for “and positive”
The data are presented as individual plate counts along with a mean and standard deviation.

[1] = TA98, rat liver S9, 3.33 μg/plate
[2] = TA98, rat liver S9, 3.33 μg/plate, plates 1-3
[3] = TA98, rat liver S9, 10.0 μg/plate
[4] = TA98, rat liver S9, 10.0 μg/plate, plates 1-3
[5] = TA98, rat liver S9, 33.3 μg/plate
[6] = TA98, rat liver S9, 33.3 μg/plate, plates 1-3
[7] = TA98, rat liver S9, 100 μg/plate
[8] = TA98, rat liver S9, 100 μg/plate, plates 1-3
[9] = TA98, rat liver S9, 333 μg/plate
[10] = TA98, rat liver S9, 333 μg/plate, plates 1-3
[11] = TA98, rat liver S9, 1000 μg/plate
[12] = TA98, rat liver S9, 1000 μg/plate, plates 1-3
[13] = TA98, rat liver S9, 3330 μg/plate
[14] = TA98, rat liver S9, 3330 μg/plate, plates 1-3
[15] = TA98, rat liver S9, 5000 μg/plate
[16] = TA98, rat liver S9, 5000 μg/plate, plates 1-3
[17] = Table 1, TA98, rat liver S9, 3.33 μg/plate
[18] = Table 1, TA98, rat liver S9, 10.0 μg/plate
[19] = Table 1, TA98, rat liver S9, 33.3 μg/plate
[20] = Table 1, TA98, rat liver S9, 100 μg/plate
[21] = Table 1, TA98, rat liver S9, 333 μg/plate
[22] = Table 1, TA98, rat liver S9, 1000 μg/plate
[23] = Table 1, TA98, rat liver S9, 3330 μg/plate
[24] = Table 1, TA98, rat liver S9, 5000 μg/plate
[25] = Table 2 summary, TA98, rat liver S9, 3.33 μg/plate
[26] = Table 2 summary, TA98, rat liver S9, 10.0 μg/plate
[27] = Table 2 summary, TA98, rat liver S9, 33.3 μg/plate
[28] = Table 2 summary, TA98, rat liver S9, 100 μg/plate
[29] = Table 2 summary, TA98, rat liver S9, 333 μg/plate
[30] = Table 2 summary, TA98, rat liver S9, 1000 μg/plate
[31] = Table 2 summary, TA98, rat liver S9, 3330 μg/plate
[32] = Table 2 summary, TA98, rat liver S9, 5000 μg/plate

Structure (SMILES)	Mean revertants per plate [1] [revertants per plate]	Individual plate counts, revertants per plate [2]	Mean revertants per plate [3] [revertants per plate]	Individual plate counts, revertants per plate [4]	Mean revertants per plate [5] [revertants per plate]	Individual plate counts, revertants per plate [6]	Mean revertants per plate [7] [revertants per plate]	Individual plate counts, revertants per plate [8]	Mean revertants per plate [9] [revertants per plate]	Individual plate counts, revertants per plate [10]	Mean revertants per plate [11] [revertants per plate]	Individual plate counts, revertants per plate [12]	Mean revertants per plate [13] [revertants per plate]	Individual plate counts, revertants per plate [14]	Mean revertants per plate [15] [revertants per plate]	Individual plate counts, revertants per plate [16]	Background lawn [17]	Background lawn [18]	Background lawn [19]	Background lawn [20]	other results
CCN(CC)c1ccc(C(=O)c2ccc(N(CC)CC)cc2)cc1 [TEMK, 4,4′-bis(diethylamino)benzophenone]	25	22 revertants per plate (2×) and 30 revertants per plate	25	30 revertants per plate and 24 revertants per plate and 20 revertants per plate	18	13 revertants per plate and 23 revertants per plate and 19 revertants per plate	26	28 revertants per plate and 26 revertants per plate and 24 revertants per plate	19	20 revertants per plate and 17 revertants per plate and 19 revertants per plate	24	32 revertants per plate and 23 revertants per plate and 17 revertants per plate	22	27 revertants per plate and 15 revertants per plate and 25 revertants per plate	22	27 revertants per plate and 19 revertants per plate (2×)	1	1	1	1	Background lawn [21]: 1 sp; Background lawn [22]: 1 mp; Background lawn [23]: 1 mp; Background lawn [24]: 1 mp; Background lawn [25]: 1; Background lawn [26]: 1; Background lawn [27]: 1; Background lawn [28]: 1; Background lawn [29]: 1 sp; Background lawn [30]: 1 mp; Background lawn [31]: 1 mp; Background lawn [32]: 1 mp; Ames Test outcome (mutagenicity): did not cause a positive increase
CCN(C)c1ccc(C(=O)c2ccc(N(C)CC)cc2)cc1 [MEAB, 4,4′-bis(methylethylamino)benzophenone]	19	21 revertants per plate and 22 revertants per plate and 13 revertants per plate	21	28 revertants per plate and 11 revertants per plate and 25 revertants per plate	24	25 revertants per plate and 24 revertants per plate (2×)	19	18 revertants per plate and 20 revertants per plate (2×)	24	31 revertants per plate and 19 revertants per plate and 21 revertants per plate	27	23 revertants per plate and 21 revertants per plate and 36 revertants per plate	19	14 revertants per plate and 17 revertants per plate and 27 revertants per plate	24	23 revertants per plate (2×) and 27 revertants per plate	1	1	1	1 sp	Background lawn [21]: 1 mp; Background lawn [22]: 1 mp; Background lawn [23]: 1 hp; Background lawn [24]: 1 hp; Background lawn [25]: 1; Background lawn [26]: 1; Background lawn [27]: 1; Background lawn [28]: 1 sp; Background lawn [29]: 1 mp; Background lawn [30]: 1 mp; Background lawn [31]: 1 hp; Background lawn [32]: 1 hp; Ames Test outcome (mutagenicity): did not cause a positive increase
Nc1ccc2cc3ccccc3cc2c1 [2-aminoanthracene]																					Background lawn (Table 1, positive control, TA98, rat liver S9, 2.5 μg/plate, in the TMMK, TEMK and MEAB runs): 1; Background lawn (Table 2 summary, positive control, TA98, rat liver S9, 2 5 μg/plate, in the TMMK, TEMK and MEAB runs): 1; Individual plate counts, revertants per plate (positive control, TA98, rat liver S9, 2.5 μg/plate, plates 1-3, in the TMMK, TEMK and MEAB runs): 1053 revertants per plate and 1225 revertants per plate and 1226 revertants per plate and 920 revertants per plate and 932 revertants per plate and 1264 revertants per plate and 1032 revertants per plate and 1133 revertants per plate and 1196 revertants per plate; Mean revertants per plate (positive control, TA98, rat liver S9, 2 5 μg/plate, in the TMMK, TEMK and MEAB runs): 968 revertants per plate and 1143 revertants per plate and 1216 revertants per plate
